The text below walks through data of patent US7741493B2, “Heterocyclic compounds as P2X7 ion channel blockers” (Aventis Pharmaceuticals Inc., priority 2003, dated 2010).

This assay deals with T1, P2X7 (Homo sapiens, UniProt Q99572).
T1 sequence (Q99572 1-595): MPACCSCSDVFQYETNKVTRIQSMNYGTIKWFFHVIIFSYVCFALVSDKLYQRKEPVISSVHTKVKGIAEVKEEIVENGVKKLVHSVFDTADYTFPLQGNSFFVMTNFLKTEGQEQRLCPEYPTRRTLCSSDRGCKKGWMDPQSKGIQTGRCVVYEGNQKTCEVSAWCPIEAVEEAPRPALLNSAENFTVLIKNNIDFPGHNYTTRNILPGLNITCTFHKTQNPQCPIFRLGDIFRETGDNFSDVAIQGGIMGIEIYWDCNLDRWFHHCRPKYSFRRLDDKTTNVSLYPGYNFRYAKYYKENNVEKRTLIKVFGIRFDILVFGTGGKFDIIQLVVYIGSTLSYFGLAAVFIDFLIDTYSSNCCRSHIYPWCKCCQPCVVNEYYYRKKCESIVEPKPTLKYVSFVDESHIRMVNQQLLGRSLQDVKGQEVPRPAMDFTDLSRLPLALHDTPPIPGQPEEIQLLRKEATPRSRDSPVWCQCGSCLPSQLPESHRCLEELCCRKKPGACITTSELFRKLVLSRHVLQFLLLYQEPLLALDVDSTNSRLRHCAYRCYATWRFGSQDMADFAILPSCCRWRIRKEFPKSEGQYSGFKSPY
As to the kind of experiment: YO-PRO-1 dye uptake assay in U373 cells stably expressing P2X7. It counts as cell-based. Further details: The complete open reading frame of human P2X7 was amplified from Incyte clone 148057; expressed in transfected cells. Particulars: dye uptake through P2X7, U373 cells, 300 μM BzATP, 5 μM YO-PRO-1, test compounds 30 nM to 3 μM; read-out: IC50. The method, then:
Following a 24-hr exposure to DNA, cells were trypsinized and re-seeded at low density in the presence of […] G418. After incubation for 2 weeks, isolated clones were selected with cloning cylinders and replated in […] G418. Cell clones were then expanded. Clones were screened for P2X7 by applying ATP and recording the resultant current using patch clamp electrophysiology.
U373 cells stably expressing P2X7 were used to screen drugs via a dye uptake assay. Cells were plated overnight on collagen coated 96-well plates at a density of 35,000 cells per well. The following day, culture media was replaced with Mg^++ and Ca^++-free Hank's balanced salt solution and various concentrations of test compounds ranging from 30 nM to 3 μM. Cells were then allowed to incubate with test compounds at 37° C. for 20 minutes. Following this incubation period YO-PRO-1 dye (Molecular Probes, Eugene, Oreg., final concentration 5 μM) and 2′-& 3′-O-(4-Benzolybenzoyl)-Adenosine 5′-triphosphate (Sigma Chemical, St Louis, Mo., final concentration 300 μM) were added to the cells sequentially. Cells were then incubated at 37° C. for 1.5 hours. […] Fluorescence in the presence of test substances was compared to that in the absence of test substances (control).

pIC50: −log10 of the molar value. Structures can show the parent of a compound that is named as a salt.

The term pIC50 denotes the negative decadic logarithm of the IC50, by convention in mol/L. Consider `CC(C)(C1=N[C@@H](c2ccccc2)[C@@H](c2ccccc2)N1)c1ccc(Cl)cc1`, for which the pIC50 is 6.27.
On to `CC(C)(CC1=N[C@@H](c2ccccc2)[C@@H](c2ccccc2)N1)c1ccccc1`, for which the negative logarithm of the IC50 (pIC50) is 8.00.
For the compound `C[C@@H](CC1=N[C@@H](c2ccccc2)[C@@H](c2ccccc2)N1)c1ccccc1`, the pIC50 was 7.89.
Regarding `C[C@@]1(c2ccccc2)N=C(COC2CCOc3ccccc32)N[C@@H]1c1ccccc1` (stereo partly drawn), the negative logarithm of the IC50 (pIC50) was 6.31.
As to `C[C@@]1(c2cccc(F)c2)N=C(NCc2cccc(F)c2)N[C@@H]1c1cccc(F)c1`, the pIC50 is 7.31.
Regarding `C[C@@]1(c2ccc(F)cc2)N=C(NCc2ccc(F)cc2)N[C@@H]1c1ccc(F)cc1`, the negative logarithm of the IC50 (pIC50) is 6.86.
`C[C@@]1(c2ccc(F)cc2)N=C(NCc2cccc(F)c2)N[C@@H]1c1ccc(F)cc1`: the negative logarithm of the IC50 (pIC50) is 6.45.
Consider `C[C@@]1(c2cccc(F)c2)N=C(NCc2ccc(F)cc2)N[C@@H]1c1cccc(F)c1`, for which the negative-log IC50 (pIC50) is 7.43.
Regarding `Fc1ccc(CNC2=N[C@@H](c3ccc(F)cc3)[C@@H](c3ccc(F)cc3)N2)cc1`, the pIC50 is 6.47.
Regarding `CC(Oc1ccccc1)C1=N[C@@](C)(c2ccccc2)[C@@H](c2ccccc2)N1` (relative stereo) [2-(1-Phenoxyethyl)-cis-4,5-diphenyl-4-methyl-4,5-dihydro-1H-imidazole trifluoroacetate], the pIC50 is 6.45.
Take `CC(C1=N[C@](C)(c2ccccc2)[C@H](c2ccccc2)N1)c1ccccc1` (relative stereo) [2-(1-Phenyl-1-ethyl)-cis-4,5-diphenyl-4-methyl-4,5-dihydro-1H-imidazole trifluoroacetate]: the negative logarithm of the IC50 (pIC50) is 7.17.
As for `C[C@]1(c2ccccc2)N=C(Cc2ccc(F)cc2F)N[C@H]1c1ccccc1` (relative stereo) [2-(2,4-Difluorobenzyl)-cis-4,5-diphenyl-4-methyl-4,5-dihydro-1H-imidazole trifluoroacetate], the negative-log IC50 (pIC50) is 7.80.
To `C[C@]1(c2ccccc2)N=C(Cc2ccc(F)c(F)c2)N[C@H]1c1ccccc1` (relative stereo) [2-(3,4-Difluorobenzyl)-cis-4,5-diphenyl-4-methyl-4,5-dihydro-1H-imidazole trifluoroacetate] belongs 7.72.
Take `C[C@]1(c2ccccc2)N=C(Cc2cccc(Cl)c2)N[C@H]1c1ccccc1` (relative stereo) [2-(3-Chlorobenzyl)-cis-4,5-diphenyl-4-methyl-4,5-dihydro-1H-imidazole trifluoroacetate]: the negative logarithm of the IC50 (pIC50) is 7.38.
Take `C[C@@]1(c2cccc(F)c2)N=C(Cc2ccc(F)cc2)N[C@@H]1c1cccc(F)c1` (relative stereo) [2-(4-Fluorobenzyl)-cis-4,5-bis-(3-fluorophenyl)-4-methyl-4,5-dihydro-1H-imidazole trifluoroacetate]: the pIC50 is 7.49.
For the compound `C[C@]1(c2ccccc2)N=C(Cc2ccc(F)cc2)N[C@H]1c1ccccc1` (relative stereo) [2-(4-Fluorobenzyl)-cis-4,5-diphenyl-4-methyl-4,5-dihydro-1H-imidazole trifluoroacetate], the pIC50 was 7.36.
Take `C[C@]1(c2ccccc2)N=C(OCC2CCCCC2)N[C@H]1c1ccccc1` (relative stereo) [2-(Cyclohexylmethoxy)-cis-4,5-diphenyl-4-methyl-4,5-dihydro-1H-imidazole trifluoroacetate]: the pIC50 is 6.56.
`C[C@@]1(c2cccc(F)c2)N=C(CCc2ccccc2)N[C@@H]1c1cccc(F)c1` (relative stereo) [2-Phenethyl-cis-4,5-bis-(3-fluorophenyl)-4-methyl-4,5-dihydro-1H-imidazole hydrochloride]: the negative-log IC50 (pIC50) was 7.18.
As to `CC(C1=N[C@](C)(c2ccccc2)[C@H](c2ccccc2)N1)c1ccc(Cl)cc1` (relative stereo) [2-[1-(4-Chlorophenyl)-1-ethyl]-cis-4,5-diphenyl-4-methyl-4,5-dihydro-1H-imidazole trifluoroacetate], the negative-log IC50 (pIC50) was 6.48.
`CC(Cc1ccccc1)C1=N[C@@H](c2ccccc2)[C@@H](c2ccccc2)N1` (relative stereo) [2-[1-Methyl-2-phenylethyl]-cis-4,5-diphenyl-4,5-dihydro-1H-imidazole trifluoroacetate]: the pIC50 was 6.24.
As to `CC(OCC1=N[C@@](C)(c2ccccc2)[C@@H](c2ccccc2)N1)C1CCCC1` (relative stereo) [2-[(1-Cyclopentyl-1-ethoxy)methyl]-cis-4,5-diphenyl-4-methyl-4,5-dihydro-1H-imidazole hydrochloride], the pIC50 is 6.80.
To `CC(OCC1=N[C@@](C)(c2ccccc2)[C@@H](c2ccccc2)N1)C1CC1` (relative stereo) [2-[(1-Cyclopropyl-1-ethoxy)methyl]-cis-4,5-diphenyl-4-methyl-4,5-dihydro-1H-imidazole trifluoroacetate] belongs 6.40.
Turning to `C#CC(CCC)OCC1=N[C@@](C)(c2ccccc2)[C@@H](c2ccccc2)N1` (relative stereo) [2-[(1-Ethynyl-1-butoxy)methyl]-cis-4,5-diphenyl-4-methyl-4,5-dihydro-1H-imidazole hydrochloride], the pIC50 is 6.13.
In the case of `C[C@@]1(c2ccccc2)N=C(COc2ccccc2Cl)N[C@@H]1c1ccccc1` (relative stereo) [2-[(2-Chlorophenoxy)methyl]-cis-4,5-diphenyl-4-methyl-4,5-dihydro-1H-imidazole hydrochloride], the pIC50 is 6.13.
As to `C[C@@]1(c2ccccc2)N=C(COc2cccc(F)c2)N[C@@H]1c1ccccc1` (relative stereo) [2-[(3-Fluorophenoxy)methyl]-cis-4,5-diphenyl-4-methyl-4,5-dihydro-1H-imidazole trifluoroacetate], the pIC50 was 6.98.
To `C[C@@]1(c2ccccc2)N=C(COC2CCC2)N[C@@H]1c1ccccc1` (relative stereo) [2-[(Cyclobutoxy)methyl]-cis-4,5-diphenyl-4-methyl-4,5-dihydro-1H-imidazole trifluoroacetate] belongs 6.14; to `C[C@@]1(c2ccccc2)N=C(COCC2CCCC2)N[C@@H]1c1ccccc1` (relative stereo) [2-[(Cyclopentylmethoxy)methyl]-cis-4,5-diphenyl-4-methyl-4,5-dihydro-1H-imidazole hydrochloride], 6.71.
To `C[C@@]1(c2ccccc2)N=C(COC2CCCC2)N[C@@H]1c1ccccc1` (relative stereo) [2-[(Cyclopentyloxy)methyl]-cis-4,5-diphenyl-4-methyl-4,5-dihydro-1H-imidazole hydrochloride] belongs 6.31.
Regarding `C[C@@]1(c2ccccc2)N=C(COc2ccccc2)N[C@@H]1c1ccccc1` (relative stereo) [2-[(Phenoxy)methyl]-cis-4,5-diphenyl-4-methyl-4,5-dihydro-1H-imidazole trifluoroacetate], the pIC50 was 6.39.
Take `C[C@@]1(c2ccccc2)N=C(COCC2CC2)N[C@@H]1c1ccccc1` (relative stereo) [2-[[(Cyclopropyl)methoxy]methyl]-cis-4,5-diphenyl-4-methyl-4,5-dihydro-1H-imidazole trifluoroacetate]: the pIC50 is 6.17.
`C[C@@]1(c2ccccc2)N=C(NCc2ccc(F)cc2)N[C@@H]1c1ccccc1` (relative stereo) [(cis-4,5-Diphenyl-4-methyl-4,5-dihydro-1H-imidazol-2-yl)-(4-fluorobenzyl)amine hydrochloride]: the negative logarithm of the IC50 (pIC50) is 7.20.
For the compound `C[C@@]1(c2ccccc2)N=C(CCc2ccccc2)N[C@@H]1c1ccccc1` (relative stereo) [cis-4,5-diphenyl-4-methyl-2-(2-phenylethyl)-4,5-dihydro-1H-imidazole], the pIC50 was 7.66.
On to `C[C@@]1(c2ccccc2)N=C(CSCc2ccccc2)N[C@@H]1c1ccccc1` (relative stereo) [cis-4,5-diphenyl-4-methyl-2-[(benzylsulfanyl)methyl]-4,5-dihydro-1H-imidazole], for which the negative-log IC50 (pIC50) is 6.28.
Regarding `c1ccc(CCC2=N[C@@H](c3ccccc3)[C@@H](c3cccnc3)N2)cc1` (relative stereo) [ditrifluoroacetate], the negative-log IC50 (pIC50) is 6.60.
Turning to `c1ccc(SCC2=N[C@@H](c3ccccc3)[C@@H](c3cccnc3)N2)cc1` (relative stereo) [ditrifluoroacetate], the pIC50 was 6.06.
`CC(C1=N[C@@H](c2ccccc2)[C@@H](c2ccccc2)N1)c1ccc(Cl)cc1` (relative stereo) [trifluoroacetate]: the negative-log IC50 (pIC50) is 6.37.
